The target in assay [1] is PAK2(h) (Homo sapiens, UniProt Q13177). As to the kind of experiment: Kinase selectivity panel (residual activity at 1 μM). It is filed as biochemical. As to conditions: inhibitor at 1 μM; read-out: residual kinase activity in % of maximal activity.
For assay [2], the target named is purified CaMKII (Rattus norvegicus, UniProt P11275). As to the kind of experiment: In vitro kinase reaction: CaMKII phosphorylation of GST-2BC (GluN2B) S1303. The format is biochemical. Here is the method: CaMKII-mediated phosphorylation of GluA1 S831 or GluN2B S1303 was measured by in vitro kinase reaction with a purified GST–GluA1 C-terminal tail or GST-GluN2B C-terminal tail. Reactions contained 40 nM CaMKII, 1 μM GST–GluA1, 50 mM PIPES, pH 7.1, 2 mM CaCl2, 10 mM MgCl2, 1 μM calmodulin, 1–4 mM ATP and 1 μM okadaic acid. Negative controls were prepared without ATP. Reactions were done at 30 °C for 20 s; reactions were stopped by adding SDS loading buffer and incubation in a boiling water bath for 5 min. GST, phospho-S831, CaMKII, phospho-T286 or phospho-S1303 were detected in the samples by immunoblot analysis.
Extended Data Fig. 3 No difference in LTP in WT mice when CaMKII is inhibited by either 10 or 30 μM AS283. Data are presented as mean values +/− SEM. a, 2x HFS potentiates the CA3-CA1 Schaffer collateral pathway in WT mice when CaMKII enzymatic activity is inhibited by 10 or 30 μM AS283 (incubated for 15 min prior to HFS, and washed out 5 min after). b, Quantification of LTP in WT mice after 10 or 30 μM AS283 (n = 3,7 hippocampal slices; Mann-Whitney test). p = 0.3833. c, Representative immunoblot and quantification of CaMKII T286 phosphorylation in dissociated hippocampal cultures after cLTP and inhibition by 10 μM AS283 (n = 4 independent cell preparations; one-way ANOVA, Tukey’s multiple comparisons test). […]

For assay [3], the system named is GFP–CaMKII in rat hippocampal neurons. As to the kind of experiment: cLTP-induced CaMKII synaptic enrichment in dissociated hippocampal cultures (GFP–CaMKII WT). It is filed as cell-based. Conditions: for CaMKII synaptic enrichment: GFP-CaMKII WT, individual neurons, sheet 4e.
For assay [4], the target named is GSK3β(h) (Homo sapiens, UniProt P49841). Briefly: Kinase selectivity panel (residual activity at 1 μM). Conditions: inhibitor at 1 μM; read-out: residual kinase activity in % of maximal activity. It is filed as biochemical.
Assay [5] concerns the target JAK3(h) (Homo sapiens, UniProt P52333). Described as above. The format is biochemical. Conditions: inhibitor at 1 μM; read-out: residual kinase activity in % of maximal activity.

Where “and” joins values, the source holds several entries; their conditions need not be identical. Identical values can stand only once.

Chain of JAK3(h) (P52333 whole entry): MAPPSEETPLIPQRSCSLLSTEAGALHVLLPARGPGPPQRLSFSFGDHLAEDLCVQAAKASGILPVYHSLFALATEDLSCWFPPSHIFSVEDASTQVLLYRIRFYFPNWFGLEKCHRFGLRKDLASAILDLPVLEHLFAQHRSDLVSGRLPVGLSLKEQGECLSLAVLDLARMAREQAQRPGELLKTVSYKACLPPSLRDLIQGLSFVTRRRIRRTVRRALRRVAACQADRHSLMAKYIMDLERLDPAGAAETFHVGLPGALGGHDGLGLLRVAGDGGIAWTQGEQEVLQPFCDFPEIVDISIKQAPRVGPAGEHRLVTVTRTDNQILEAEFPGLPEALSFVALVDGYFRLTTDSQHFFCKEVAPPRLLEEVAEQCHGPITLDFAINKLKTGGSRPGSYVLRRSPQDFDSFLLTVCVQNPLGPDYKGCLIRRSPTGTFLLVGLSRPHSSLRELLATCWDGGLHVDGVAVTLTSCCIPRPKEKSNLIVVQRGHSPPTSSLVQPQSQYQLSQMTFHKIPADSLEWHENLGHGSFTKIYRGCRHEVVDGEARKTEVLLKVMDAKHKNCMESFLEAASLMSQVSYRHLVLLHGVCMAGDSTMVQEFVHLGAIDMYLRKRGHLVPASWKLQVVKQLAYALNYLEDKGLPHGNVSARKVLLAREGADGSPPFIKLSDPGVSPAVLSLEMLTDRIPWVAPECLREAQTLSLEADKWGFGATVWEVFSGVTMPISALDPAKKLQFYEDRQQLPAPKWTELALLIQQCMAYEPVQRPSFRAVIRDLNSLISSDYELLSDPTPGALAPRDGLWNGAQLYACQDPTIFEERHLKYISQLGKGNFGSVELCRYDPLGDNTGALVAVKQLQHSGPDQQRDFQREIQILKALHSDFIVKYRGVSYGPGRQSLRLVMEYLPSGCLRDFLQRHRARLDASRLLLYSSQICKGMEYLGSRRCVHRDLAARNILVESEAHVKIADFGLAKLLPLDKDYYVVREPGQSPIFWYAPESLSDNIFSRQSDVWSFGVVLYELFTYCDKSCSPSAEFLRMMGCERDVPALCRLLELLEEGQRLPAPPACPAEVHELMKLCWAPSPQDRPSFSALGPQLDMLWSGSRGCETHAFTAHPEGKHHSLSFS
Chain of PAK2(h) (Q13177 whole entry): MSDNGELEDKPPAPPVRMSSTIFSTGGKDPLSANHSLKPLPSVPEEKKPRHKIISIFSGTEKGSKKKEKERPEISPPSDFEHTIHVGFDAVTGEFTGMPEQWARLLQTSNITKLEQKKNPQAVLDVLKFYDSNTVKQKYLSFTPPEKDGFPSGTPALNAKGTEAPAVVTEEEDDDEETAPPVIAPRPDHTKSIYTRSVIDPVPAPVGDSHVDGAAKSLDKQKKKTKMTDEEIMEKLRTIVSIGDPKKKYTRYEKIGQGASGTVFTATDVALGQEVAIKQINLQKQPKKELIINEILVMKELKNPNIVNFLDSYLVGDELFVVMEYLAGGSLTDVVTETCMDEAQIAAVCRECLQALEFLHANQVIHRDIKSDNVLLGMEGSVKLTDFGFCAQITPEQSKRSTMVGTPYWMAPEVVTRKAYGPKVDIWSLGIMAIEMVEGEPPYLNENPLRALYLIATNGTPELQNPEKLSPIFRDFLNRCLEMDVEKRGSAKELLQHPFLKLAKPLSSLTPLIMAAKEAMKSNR
Chain of GSK3β(h) (P49841 whole entry): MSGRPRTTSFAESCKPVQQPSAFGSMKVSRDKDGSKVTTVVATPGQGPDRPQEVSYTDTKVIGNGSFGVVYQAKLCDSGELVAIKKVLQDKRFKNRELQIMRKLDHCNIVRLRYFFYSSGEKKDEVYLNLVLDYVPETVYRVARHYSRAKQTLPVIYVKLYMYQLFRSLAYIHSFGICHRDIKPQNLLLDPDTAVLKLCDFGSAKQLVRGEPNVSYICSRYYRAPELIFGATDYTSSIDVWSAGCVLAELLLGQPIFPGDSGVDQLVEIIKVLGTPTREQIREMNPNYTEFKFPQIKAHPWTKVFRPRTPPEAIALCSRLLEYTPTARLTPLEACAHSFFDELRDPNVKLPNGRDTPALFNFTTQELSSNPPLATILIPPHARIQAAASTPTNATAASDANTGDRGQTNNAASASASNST

Take `NCCNc1cccc(-c2ccnc3[nH]c4ccccc4c23)c1` [AS283]: the remaining activity at 1 µM in assay [1] amounted to 76%; in assay [4] it was 87%; in assay [5] it was 92%. In addition, in assay [2] (ATP + 10 μM AS283, 30 °C), the “GluN2B S1303 phosphorylation (immunoblot, normalized)” value was 25.6775% and 36.949% and 34.6383% and 24.0932%. Further, the “effect on CaMKII-mediated S1303 phosphorylation” value in assay [2] (WT GluN2B C terminus) is “inhibited”. In addition, the “effect on CaMKII movement to excitatory synapses in response to cLTP” value in assay [3] (AS283) is “did not interfere”.
As to `CC(C)(C)n1nc(Cc2cccc3ccccc23)c2c(N)ncnc21` [NM-PP1], the CaMKII synaptic enrichment in assay [3] (NMPP1, before cLTP) is 1.457 and 1.288 and 1.299 and 1.252 and 1.168 and 1.649; in assay [3] (after cLTP in NMPP1), 2.238 and 1.828 and 2.413 and 1.827 and 1.651 and 2.282.
